Reference: US12150927B2, “Use of cannabidiolic acid in the treatment of autism spectrum disorder and associated disorders” (GW Research Limited, priority 2016, dated 2024)

How the values were obtained:
[1] = test system: MeCP2 KO mice; assay: Novel Object Recognition (NOR) test, short- and long-term memory, mouse model of Rett syndrome; assay type: in vivo
Experimental: Furthermore, the efficacy of CBDA in reverting/attenuating the short- and long-term memory deficits present in these mice was evaluated. The Novel Object Recognition (NOR) test was performed before the starting of the treatment Post Natal Day 28 (PND 28), at PND 41 when the first motor symptoms appear and at PND 56 and 66 when the disease is fully manifested.
At PND 28, 41, 56 and 66 the effect of CBDA on short- and long-term memory deficits was investigated through the Novel Object Recognition (NOR) test.
The experiment was performed as previously described (Zamberletti E. et al. 2014 and Kruk-Stomka M. et al. 2014).
The experimental apparatus used for the Novel Object Recognition test was an open-field box (43×43×32 cm) made of Plexiglas, placed in a dimly illuminated room. Animals performed each test individually.
Briefly, each animal was placed in the arena and allowed to explore two identical previously unseen objects for 10 minutes (familiarization phase). After an inter-trial interval of 30 minutes and 24 hours one of the two familiar objects was replaced by a novel, previously unseen object and mice were returned to the arena for the 10-minute test phase.
During the test phase the time spent exploring the familiar object (Ef) and the new object (En) was recorded separately by two observers blind to the groups and the discrimination index was calculated as follows: [(En−Ef)/(En+Ef)]×100.

[2] = test system: VPA rats; assay: Short-term memory, novel object recognition test, rat VPA model; assay type: in vivo, Sprague-Dawley rats; conditions: FIG. 2C
Experimental: (§1) Pregnant Sprague-Dawley rats (Charles River, Calco, Italy), received a single intraperitoneal injection of 500 mg/kg sodium valproate on the 12.5 day after conception, and control females were injected with physiological saline at the same time. Sodium valproate (Sigma Aldrich, Milan, IT) was dissolved in saline at a concentration of 250 mg/ml.
(§2) CBDA was dissolved in ethanol, cremophor and saline (1:1:18). Symptomatic treatment with CBDA at doses of 2 and 20 mg/kg/day i.p. was performed starting from PND 34 (early adolescence) till 56 (early adulthood), both in male and female offspring of dams injected with VPA 500 mg/kg (or vehicle) on day 12.5 after conception. At PND 56, a series of behavioural tests was performed in order to assess the effect of chronic CBDA on sociability, social novelty, short-term memory, locomotion and stereotyped/repetitive behaviours.
Short-term memory: The experimental apparatus used for the object recognition test was an open-field box (43×43×32 cm) made of Plexiglas, placed in a dimly illuminated room. The experiment was performed and analysed as previously described (Zamberletti et al, 2014). Animals performed each test individually.
Each animal was placed in the arena and allowed to explore two identical previously unseen objects for 5 minutes (familiarization phase). After an inter-trial interval of 3 minutes one of the two familiar objects was replaced by a novel, previously unseen object and rats were returned to the arena for the 5-minute test phase. During the test phase the time spent exploring the familiar object (Ef) and the new object (En) was videotaped and recorded separately by two observers blind to the treatment groups and the discrimination index was calculated as follows: [(En−Ef)/(En+Ef)]×100.

[3] = test system: Ube3am-/p+ (AS) mice; assay: Rotarod test, mouse model of Angelman syndrome; assay type: in vivo; conditions: chronic treatment (30 days) CBDA 20 mg/kg i.p., 10 weeks, vs AS vehicle, FIG. 13
Experimental: (§3) Heterozygous mice with maternal deficiency of Ube3A (Ube3am−/p+) and wild type (Ube3am+/p+) were purchased from The Jackson Laboratory (Jackson code: B6.129S7-Ube3a tm1Alb/J) and maintained in a C57BL/6 background.
Drugs were dissolved in 1:1:18 ethanol:cremophor:0.9% saline, for intraperitoneal (i.p.) administration. […] CBDA was administered at 20 mg/kg.
Rotarod: The rotarod test assesses balance and motor coordination of mice. Mice have been measured for the time (in seconds) of equilibrium before falling on a rotary cylinder by a magnet that, activated from the fall of the mouse on the plate, allows to record the time of permanence on the cylinder. […] The animals were analysed by 2 separate tests at 1-h interval in the same day.

[4] = test system: Ube3am-/p+ (AS) mice; assay: Tail suspension test, mouse model of Angelman syndrome; assay type: in vivo; conditions: CBDA 20 mg/kg i.p., vs AS vehicle, FIG. 15
Experimental: as §3
Drugs were dissolved in 1:1:18 ethanol:cremophor:0.9% saline, for intraperitoneal (i.p.) administration. Drug treatment was performed daily for 35 days. CBDA was administered at 20 mg/kg.
Tail suspension: The tail suspension test assesses depressive-like behaviour in mice. Mice were individually suspended by the tail on a horizontal bar (50 cm from floor) using adhesive tape placed approximately 4 cm from the tip of the tail. The duration of immobility was recorded in seconds over a period of 6 minutes by a time recorder. Immobility time was defined as the absence of escape-oriented behaviour.

[5] = test system: VPA-exposed offspring; assay: Locomotor activity and repetitive behaviours (self-grooming) in activity cage, rat VPA model; assay type: in vivo, Sprague-Dawley rats; conditions: CBDA 20 mg/kg/day i.p. PND 34-56
Experimental: as §1, §2
Locomotor activity and repetitive behaviours: Locomotor activity was recorded in an activity cage for 20 minutes with the aid of Anymaze program (Ugo Basile, Italy). In this period, repetitive behaviours (self-grooming and digging) were measured by an observer blind to the treatment group.

[6] = test system: animal models of seizure; conditions: co-pending UK patent application GB1514079.1; cited from earlier work

Question: What does the source list for C=C(C)[C@@H]1CCC(C)=C[C@H]1c1c(O)cc(CCCCC)c(C(=O)O)c1O [CBDA, Cannabidiolic acid]?
Answer: short-term memory in the NOR test ([1]; MeCP2 KO mice, CBDA 2 and 20 mg/kg i.p., each time point (PND 41, 56, 66), 30 min inter-trial interval, FIG. 10): reverted the cognitive impairment in short-term memory; long-term memory in the NOR test ([1]; MeCP2 KO mice, both doses of CBDA (2 and 20 mg/kg i.p.), 24 hours inter-trial interval, FIG. 11): counteract the cognitive impairment in long-term memory; short-term recognition memory in the NOR test ([1]; WT littermates, CBDA 2 and 20 mg/kg i.p., FIG. 10): without affecting recognition memory; long-term recognition memory in the NOR test ([1]; WT littermates, both doses of CBDA, FIG. 11): without affecting recognition memory; short-term memory (discrimination index) ([2]; CBDA 20 mg/kg/day i.p., female VPA rats): able to reverse the short-term memory deficit; short-term memory (discrimination index) ([2]; CBDA 2 and 20 mg/kg/day i.p., male VPA rats): completely and significantly reversed the short-term memory deficit; recognition memory per se ([2]; CBDA given to vehicle-treated (non VPA) rats): without affecting per se recognition memory; latency to fall (rotarod) [3]: significantly reduced latency to fall; duration of immobility time [4]: significantly reduced the duration of immobility time; locomotor activity ([5]; VPA offspring, FIG. 2B): able to normalize this; repetitive behaviours (time spent in compulsive self-grooming) ([5]; VPA-exposed offspring, FIG. 2A): significantly normalize this behaviour; efficacy in animal models of seizure [6]: effective in animal models of seizure
